The values that follow are results of earlier work, collected in EP4046639A1, “PREVENTION OF PULMONARY VASCULAR LEAK IN COVID-19” (priority 2021, dated 2022).

Read-outs that look alike come from different tables or passages of the source.

The data set concerns Covid-19.

As to `C[C@@H]1C[C@H]2[C@@H]3CCC4=CC(=O)C=C[C@]4(C)[C@@]3(F)[C@@H](O)C[C@]2(C)[C@@]1(O)C(=O)CO` [Dexamethason], the Covid-19 mortality is given as 20% (hospitalized patients, reduced from 24) and 30% (patients in the intensive care unit (ICU), reduced from 40).
